Data published in paper PMC10117725, “From an Hsp90 - binding protein to a peptide drug” (microLife, 2022).
Where no end group is shown, it is not given here.

Tests used:
Hsp90α = target: T1, Hsp90α (Homo sapiens, UniProt P07900); assay type: binding; conditions: dot blot, 2 µg blotted on membrane, 20 µg recombinant Hsp90α at 4°C overnight, α-Hsp90α immunodetection
T1 construct: purchased Abcam
Description: (§1) Two µg of each peptide was blotted (dot blot) directly on PDV nitrocellulose membrane and blocked with ROTI®Block (Carl Roth, Germany). After washing, the membrane was then incubated with 20 μg of recombinant Hsp90α (Abcam)/Lpl1-his protein at 4°C overnight. In case of interaction studies with Hsp90α, α-Hsp90α (produced in mouse, Abcam) was used as the primary antibody and for interaction studies with Lpl1-his, Anti-6X His tag antibody (also produced in mouse, Sigma-Aldrich, Germany) was used. Alkaline phosphatase conjugated goat-α-mouse IgG (Sigma-Aldrich, Germany) served as the secondary antibody. Detection was done using BCIP®/NBT solution (Sigma, Germany). Lpl1-his was isolated and purified as described in our previous paper (Tribelli et al. [2020]).

[1] = tested on: F-actin levels in N/TERT-1 cells; assay: F-actin measurement (ActinGreen 488 fluorescence) in N/TERT-1 cells; assay type: cell-based, human; conditions: L15 20 µM, L13 30 µM, geldanamycin 5 µM; 1.5 h; relative to control
Description: About 5 × 10^4 cells were seeded in black flat bottom 96 well cell culture microplate (Greiner, Germany) and incubated overnight. The cells were then incubated with peptides or geldanamycin for 1.5 h. After incubation, the cells were washed, permeabilised with 0.1% (v/v) Triton X-100 and stained with ActinGreen™ 488 ReadyProbes® (Thermo Fischer, Germany) for 30 min. After the staining, the cells were washed and measure for its fluorescence at Excitation/Emission: 495/518 nm (Luqman et al. [2020]).

Lpl1 = target: T2, Lpl1 (Staphylococcus aureus, UniProt Q2FJK4); assay: Dot blot / immunoblot interaction with Lpl1-his; assay type: binding; conditions: 2 µg blotted, anti-6X His immunodetection
T2 construct: made in house
T2 sequence (Q2FJK4 23-257): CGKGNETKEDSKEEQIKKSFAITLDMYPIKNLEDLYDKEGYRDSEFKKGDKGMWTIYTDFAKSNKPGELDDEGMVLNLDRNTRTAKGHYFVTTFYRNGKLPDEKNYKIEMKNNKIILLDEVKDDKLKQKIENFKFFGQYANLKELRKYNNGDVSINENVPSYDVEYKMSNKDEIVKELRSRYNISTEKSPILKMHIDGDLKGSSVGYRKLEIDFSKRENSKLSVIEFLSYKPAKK
Description: as §1

MONO-MAC-6 (MM6) cells = assay: MTT cytotoxicity in MM6 cells; assay type: cell-based, human; conditions: 24 h
Description: MTT (3-(4,5-dimethylthiazol-2-yl)-2,5-diphenyl tetrazolium bromide) assay was employed to analyze the cytotoxicity of peptides and geldanamycin to the cells. 5 × 10^5 cells were seeded in a 96 flat bottom well plate and incubated for 2.5 or 24 h at 37°C with 5% CO2. The cells were then treated with increasing concentration (0 to 200 µM) of peptides or geldanamycin for 24 h. After the incubation, 10 μl of the MTT labelling reagent is added to each well to attain a final concentration 0.5 mg/ml, followed by 4 h incubation. Metabolically active cells convert the yellow tetrazolium salt to purple formazan crystals, which were solubilized using the solubilization solution (DMSO) and measured for absorbance at λmax/λref–570/690 nm (Saising et al. [2018]).

S. aureus USA300 = assay: Galleria mellonella larvae infection model, S. aureus USA300; assay type: in vivo
Description: (§2) Galleria mellonella larvae, purchased from Feeders & more GmbH, Germany, were sorted based on weight and used within one week. Ten larvae per group with weight average of 500 mg/larvae were injected with bacteria and/or peptides on its last proleg using a BD insulin syringe. The dosage used for the experiment were 60 mg/kg for peptides, 5 mg/kg of geldanamycin and 20 mg/kg for vancomycin. Each larva was injected with 10 µl of L15 (last left proleg) 1 h before administration of 10^6 cfu S. aureus (last right proleg). The larvae were maintained at 37°C and observed for mortality every day over the course of 5 days.

S. aureus Newman = assay: Galleria mellonella larvae infection model, S. aureus Newman; assay type: in vivo; conditions: peptides 60 mg/kg, vancomycin 20 mg/kg, injected 1 h before 10^6 cfu; 37°C
Description: as §2

Staphylococcus aureus = assay: Hemolysin activity on sheep blood agar; assay type: cell-based; conditions: impregnated discs on sheep blood agar, 37°C overnight
Description: About 6 mm Whatman empty Antibiotic Assay Discs were impregnated with L15 or L13 and allowed to dry. Once dried, the discs were placed on sheep blood agar plates, inoculated with S. aureus and incubated at 37°C overnight. The halo obtained was measured and compared.

Solubility in PBS = assay type: physicochemical; conditions: qualitative statement
[2] = tested on: S. aureus USA300 invasion into N/TERT-1 cells; assay: S. aureus USA300 invasion into N/TERT-1 keratinocytes; assay type: cell-based, human; conditions: pretreatment with L15 20 µM, L13 30 µM, geldanamycin 5 µM or α-Hsp90α antibody
Description: The invasion protocol was adapted from our previous papers (Nguyen et al. [2015], Tribelli et al. [2020]). About 5 × 10^5 Keratinocytes were seeded in a 24 well plate (Greiner, Frickenhausen, Germany) to attain a monolayer of ∼10^6 cells/well. Staphylococcusaureus was grown overnight at 37°C, centrifuged and suspended in invasion medium (DMEM with 10% FBS for HaCaT and K-SFM for NTERT-1 cells). The adherent keratinocytes were washed with PBS and supplemented with invasion medium followed by treatment with 20 µM of L15, 30 µM of L13, or 5 µM geldanamycin (Sigma-Aldrich, Germany) or monoclonal antibodies specific against Hsp90α (α‐Hsp90α, Abcam) for 1 h. After 1 h, 100 µl of bacterial suspension was added to each well to attain a MOI (multiplicity of infection) of 30 and incubated with cells for 1.5 h. Subsequently, the extracellular bacteria were killed with treatment of 2.5 μg/ml lysostaphin (Sigma-Aldrich, Germany) for 1.5 h. The cells were then washed, lysed, mechanically detached by scraping, diluted, and enumerated on TSA (Tryptic Soy Agar) plates to quantify the intracellular bacteria.

[3] = tested on: human peripheral blood mononuclear cells (PBMCs); assay: Cytokine induction in PBMCs (bead-based immunoassay); assay type: cell-based; conditions: IL-6, IL10, IL-12p70, IL12-p40, IL-23, TNFα, IL-1ß, IL-1RA, IP-10, TARC; 20 h
Description: Human peripheral blood mononuclear cells (PBMCs) from buffy coat blood samples of healthy donors were stimulated with the indicated doses of L15 and L13 for 20 h. For the subsequent bead-based immunoassay, the cell culture supernatants of a total of four buffy coats per immunoassay were used. Each of the stimulations was performed in biological duplicates. The secreted cytokines were then identified and quantified using the immunofluorescent bead-based immunoassay LEGENDplex® Human Macrophage/Microglia Panel (13-plex) and the corresponding Data Analysis Software from BioLegend. Muramyl Dipeptide (MDP) which activates the NOD-2 receptors was used as the positive control.

GHYFVTTFY [L13]
Interaction with Hsp90α (Hsp90α): Yes
relative F-actin content in N/TERT-1 cells [1]: 0.81 ± 0.03
direct interaction with Lpl1 (Lpl1): interact directly
percentage of viable cells, MM6, 1 µM (MONO-MAC-6 (MM6) cells; 1 µM): 106.71 ± 6.40%
percentage of viable cells, MM6, 200 µM (MONO-MAC-6 (MM6) cells; 200 µM): 82.43 ± 8.59%
larvae surviving on day 5, S. aureus USA300 (S. aureus USA300; peptides 60 mg/kg injected 1 h before 10^6 cfu, 37°C, 10 larvae per group, three biological replicates): 23%
larvae surviving on day 5, S. aureus Newman (S. aureus Newman): 46%
effect on hemolysis activity of S. aureus (Staphylococcus aureus): nor was hemolysis activity markedly affected
solubility in PBS (Solubility in PBS): poor solubility in PBS
invasion of S. aureus USA300 into N/TERT-1 cells [2]: inhibits the invasion

TAKGHYFVTTFYRNG [L15]
Interaction with Hsp90α (Hsp90α): Yes
relative F-actin content in N/TERT-1 cells [1]: 0.9 ± 0.02
direct interaction with Lpl1 (Lpl1): interact directly
reduction of lethality of S. aureus in the insect model (S. aureus USA300; G. mellonella model): about 30%
larvae surviving on day 5, S. aureus Newman (S. aureus Newman): 36%
cytokine inducing activity in PBMCs [3]: relatively inert
effect on hemolysis activity of S. aureus (Staphylococcus aureus): nor was hemolysis activity markedly affected
solubility in PBS (Solubility in PBS): better soluble
invasion of S. aureus USA300 into N/TERT-1 cells [2]: inhibits the invasion
